Laboratory results from US20230265069A1, “Small Molecule Inhibitors That Block the Budding of Enveloped Viruses” (priority 2020, published 2023).
Where two headings read alike, the source gives them in different places.

Tests used:
HSV-2 = HSV-2 release from infected Vero cells, plaque assay; details: for EC50: read-out: EC50 (μM) Inhibition of HSV-2 Budding at 24 h
[1] = biological target: T1, Tsg101-UEV (Tsg101 amino acids 1-145) (Homo sapiens, UniProt Q99816); experiment: Fluorescence thermal shift (FTS) assay, binding to Tsg101-UEV; details: for Thermal shift (Tm shift) of Tsg101-UEV caused by compound: FTS dose response, result in words
T1 sequence (Q99816 1-145): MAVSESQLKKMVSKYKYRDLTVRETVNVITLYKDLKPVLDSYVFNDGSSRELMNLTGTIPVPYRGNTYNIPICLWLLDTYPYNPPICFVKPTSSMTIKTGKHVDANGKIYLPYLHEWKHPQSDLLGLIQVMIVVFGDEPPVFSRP
Procedure: The fluorescence-based thermal shift assay is based on the observation that a protein unfolds upon heating, exposing the hydrophobic residues within its tertiary structure. The unfolding temperature (Tm) is determined by the protein's primary sequence and solution environment. The FTS assay uses a fluorescent dye sensitive to a hydrophobic environment to probe protein stability and its modulation by small molecule ligands. The dye has a low fluorescence quantum yield when in a polar environment. Once in contact with the hydrophobic core normally buried within a folded protein that has become exposed during the thermal unfolding (melting) process, the quantum yield of the dye increases, thus providing a reporting signal. Furthermore, a protein's stability can be affected by ligand binding, resulting in an increase or decrease in its melting temperature. FTS assay uses the Tm shift upon binding of a ligand to identify hit compounds for drug discovery.
We screened chemical compounds using a fluorescence thermal shift (FTS) assay (27, 28) to identify small molecules that bind directly to a truncated form of Tsg101 (amino acids 1-145) which contains the Ubiquitin E2 variant (UEV) ubiquitin-binding domain (FIG. 1A, 1B, 1C). […] This truncated Tsg101, called Tsg101-UEV, was used because full-length Tsg101 has significant solubility issues in aqueous solution. Tsg101 is an adaptor protein and thus lacks a readily deployable functional assay, making FTS a tractable approach to identify interacting compounds. FTS monitors protein thermal denaturation using SYPRO® Orange, a dye which fluoresces when bound to hydrophobic surfaces, which allows monitoring of the changes in hydrophobic surface exposure during protein denaturation (27). Since ligand binding affects protein thermal stability, it can be detected through modulation of protein thermal denaturation (melting) as a shift in melting temperature (Tm). Tsg101-UEV has a well-defined melting curve suitable for FTS. We used the FTS assay to identify compounds that bind to Tsg101-UEV.
Fluorescence thermal shift (FTS) screening to identify small molecule binding to Tsg101-UEV. FTS using thermal shift elicited by the small molecule binding effect to protein stability. FTS monitors protein thermal denaturation using environment-sensitive dye Sypro® Orange which fluoresces when bound to hydrophobic surfaces, taking advantage of the changes in hydrophobic surface exposure in protein denaturation. Discovery of small molecule binding to target protein utilizes the observation that ligand binding affects protein thermal stability, and therefore can be detected through a shift in the protein's thermal denaturation (melting) temperature (Tm). We have employed FTS to reveal changes in thermodynamic properties of Tsg101 elicited by its interaction with a small molecule. […] A fluorescence dye Sypro® Orange (Invitrogen) was used for assay detection. The dye is excited at 473 nm and has a fluorescence emission at 610 nm. The dye binds to hydrophobic regions of a protein that are normally buried in a native protein structure. […] The Tsg101 fragment was premixed at a concentration of 2 μM with a 5× concentration of Sypro® Orange in HEPES buffer (100 mM HEPES, 150 mM NaCl, pH 7.5). Then 10 μl of the protein-dye mix was added to an assay plate and 10 to 50 nanoliters of compound, equal to 10 to 50 μM, were added with an acoustic transfer robot Echo550 (Labcyte, CA).

[2] = HSV-2 infected Vero cells, virus released into media, plaque assay

Compound	EC50 (μM) Inhibition of HSV-2 Budding at 24 h (HSV-2; [2])	Thermal shift (Tm shift) of Tsg101-UEV caused by compound [1]	EC50 (HSV-2; [2]) [µM]	also measured
5-methoxy-2[[(3,5-dimethyl-4-methoxy-pridin-2-yl-N-oxide)methyl]sulfinyl]-1H-benzimidazole [O-omeprazole]	inactive	did not cause a detectable thermal shift	–	–
4-desmethoxy-omeprazole	–	–	52	–
Pantoprazole	inactive	smallest thermal shift	–	Tm shift of Tsg101 in the FTS assay on addition of DTT ([1]; with reducing agent DTT): abolishes the Tm shift
Dexlansoprazole	–	–	76	–
Cc1c(OCC(F)(F)F)ccnc1C[S+]([O-])c1nc2ccccc2[nH]1 (centres unmarked) [Lansoprazole]	–	–	–	EC50 (HSV-2; Human alphaherpesvirus 2, Vero, 24 h): 84 µM
